Laboratory results as given in publication PMC7486443, “Generation of Phenothiazine with Potent Anti-TLK1 Activity for Prostate Cancer Therapy” (iScience, 2020).

Columns and labels:
Assay in all cases: biochemical
Set-up in all cases: DiscoverX KINOMEscan scanMAX competition binding panel, single concentration, percent of control; remaining binding: dose or concentration left out as unconfirmed
Conditions in all cases: KINOMEscan binding, percent of control; read-out: Table S4_SCANMAX REPORT - related to Fig. 1 / Percent Control
PRKCH = PRKCH (Homo sapiens, UniProt P24723)
GSK3B = GSK3B (Homo sapiens, UniProt P49841)
FGFR2 = FGFR2 (Homo sapiens, UniProt P21802)
MKNK2 = MKNK2 (Homo sapiens, UniProt Q9HBH9)
PCTK1 = molecular target: T1, PCTK1 (Homo sapiens, UniProt Q00536)
T1 construct: gene CDK16

p38-beta = molecular target: T2, p38-beta (Homo sapiens, UniProt Q15759)
T2 construct: gene MAPK11

EPHA1 = EPHA1 (Homo sapiens, UniProt P21709)
RIPK5 = molecular target: T3, RIPK5 (Homo sapiens, UniProt Q6XUX3)
T3 construct: gene DSTYK

TAOK2 = TAOK2 (Homo sapiens, UniProt Q9UL54)
SBK1 = SBK1 (Homo sapiens, UniProt Q52WX2)
ICK = molecular target: T4, ICK (Homo sapiens, UniProt Q9UPZ9)
T4 construct: gene CILK1

DAPK3 = DAPK3 (Homo sapiens, UniProt O43293)
CSNK1E = CSNK1E (Homo sapiens, UniProt P49674)
PIKFYVE = PIKFYVE (Homo sapiens, UniProt Q9Y2I7)
ERK2 = molecular target: T5, ERK2 (Homo sapiens, UniProt P28482)
T5 construct: gene MAPK1

LRRK2(G2019S) = LRRK2(G2019S) (Homo sapiens, UniProt Q5S007, G2019S)
QSK = molecular target: T6, QSK (Homo sapiens, UniProt Q9Y2K2)
T6 construct: gene SIK3

CDC2L1 = molecular target: T7, CDC2L1 (Homo sapiens, UniProt P21127)
T7 construct: gene CDK11B

PIP5K1C = PIP5K1C (Homo sapiens, UniProt O60331)
Sequence of PIP5K1C (O60331 whole entry): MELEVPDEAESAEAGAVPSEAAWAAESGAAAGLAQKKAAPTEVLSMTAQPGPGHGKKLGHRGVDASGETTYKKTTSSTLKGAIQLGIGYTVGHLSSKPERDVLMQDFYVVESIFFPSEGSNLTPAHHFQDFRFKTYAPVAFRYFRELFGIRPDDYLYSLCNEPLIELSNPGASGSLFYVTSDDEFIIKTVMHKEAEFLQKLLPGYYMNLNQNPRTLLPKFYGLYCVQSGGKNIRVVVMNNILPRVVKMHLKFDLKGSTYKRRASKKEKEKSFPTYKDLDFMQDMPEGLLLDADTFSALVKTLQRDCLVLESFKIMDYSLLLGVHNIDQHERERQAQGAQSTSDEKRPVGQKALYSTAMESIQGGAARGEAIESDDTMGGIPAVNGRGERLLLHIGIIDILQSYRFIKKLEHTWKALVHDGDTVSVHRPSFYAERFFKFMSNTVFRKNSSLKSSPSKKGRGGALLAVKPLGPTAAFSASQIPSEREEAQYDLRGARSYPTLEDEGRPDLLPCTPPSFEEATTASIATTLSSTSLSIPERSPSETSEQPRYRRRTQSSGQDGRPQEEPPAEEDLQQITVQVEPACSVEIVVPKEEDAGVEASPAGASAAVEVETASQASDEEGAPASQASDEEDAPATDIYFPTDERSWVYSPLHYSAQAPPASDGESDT

Sequence of TAOK2 (Q9UL54 whole entry): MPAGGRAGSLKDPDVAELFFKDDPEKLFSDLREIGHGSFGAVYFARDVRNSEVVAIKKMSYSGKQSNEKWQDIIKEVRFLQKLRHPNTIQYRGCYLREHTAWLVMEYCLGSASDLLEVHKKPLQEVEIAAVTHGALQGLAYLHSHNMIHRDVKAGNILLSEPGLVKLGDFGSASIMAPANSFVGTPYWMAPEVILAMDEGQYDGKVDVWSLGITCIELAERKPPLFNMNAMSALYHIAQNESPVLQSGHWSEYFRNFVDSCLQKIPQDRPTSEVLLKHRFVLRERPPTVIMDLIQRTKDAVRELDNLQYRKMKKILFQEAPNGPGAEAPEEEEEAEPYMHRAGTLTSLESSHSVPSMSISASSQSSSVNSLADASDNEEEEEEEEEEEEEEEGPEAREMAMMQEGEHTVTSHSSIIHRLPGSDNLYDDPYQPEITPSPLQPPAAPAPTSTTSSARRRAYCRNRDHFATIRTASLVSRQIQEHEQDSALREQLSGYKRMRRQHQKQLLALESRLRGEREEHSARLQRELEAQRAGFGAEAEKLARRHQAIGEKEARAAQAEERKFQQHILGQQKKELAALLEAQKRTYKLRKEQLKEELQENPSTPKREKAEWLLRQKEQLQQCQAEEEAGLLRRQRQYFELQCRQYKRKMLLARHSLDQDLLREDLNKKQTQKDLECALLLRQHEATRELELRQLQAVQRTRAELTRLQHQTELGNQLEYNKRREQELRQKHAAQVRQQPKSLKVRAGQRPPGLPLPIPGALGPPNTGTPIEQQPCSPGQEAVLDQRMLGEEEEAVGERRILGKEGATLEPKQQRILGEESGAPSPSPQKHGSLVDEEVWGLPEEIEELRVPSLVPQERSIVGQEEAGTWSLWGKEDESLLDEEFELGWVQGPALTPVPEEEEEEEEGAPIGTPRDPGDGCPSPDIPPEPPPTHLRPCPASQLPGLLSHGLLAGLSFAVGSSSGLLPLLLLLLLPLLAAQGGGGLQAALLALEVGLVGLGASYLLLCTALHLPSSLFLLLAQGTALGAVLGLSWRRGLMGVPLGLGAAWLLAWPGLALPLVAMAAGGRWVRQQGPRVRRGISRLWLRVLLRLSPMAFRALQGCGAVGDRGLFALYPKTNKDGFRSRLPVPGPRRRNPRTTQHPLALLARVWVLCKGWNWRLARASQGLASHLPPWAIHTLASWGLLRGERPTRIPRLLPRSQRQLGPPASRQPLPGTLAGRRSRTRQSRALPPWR
Sequence of FGFR2 (P21802 whole entry): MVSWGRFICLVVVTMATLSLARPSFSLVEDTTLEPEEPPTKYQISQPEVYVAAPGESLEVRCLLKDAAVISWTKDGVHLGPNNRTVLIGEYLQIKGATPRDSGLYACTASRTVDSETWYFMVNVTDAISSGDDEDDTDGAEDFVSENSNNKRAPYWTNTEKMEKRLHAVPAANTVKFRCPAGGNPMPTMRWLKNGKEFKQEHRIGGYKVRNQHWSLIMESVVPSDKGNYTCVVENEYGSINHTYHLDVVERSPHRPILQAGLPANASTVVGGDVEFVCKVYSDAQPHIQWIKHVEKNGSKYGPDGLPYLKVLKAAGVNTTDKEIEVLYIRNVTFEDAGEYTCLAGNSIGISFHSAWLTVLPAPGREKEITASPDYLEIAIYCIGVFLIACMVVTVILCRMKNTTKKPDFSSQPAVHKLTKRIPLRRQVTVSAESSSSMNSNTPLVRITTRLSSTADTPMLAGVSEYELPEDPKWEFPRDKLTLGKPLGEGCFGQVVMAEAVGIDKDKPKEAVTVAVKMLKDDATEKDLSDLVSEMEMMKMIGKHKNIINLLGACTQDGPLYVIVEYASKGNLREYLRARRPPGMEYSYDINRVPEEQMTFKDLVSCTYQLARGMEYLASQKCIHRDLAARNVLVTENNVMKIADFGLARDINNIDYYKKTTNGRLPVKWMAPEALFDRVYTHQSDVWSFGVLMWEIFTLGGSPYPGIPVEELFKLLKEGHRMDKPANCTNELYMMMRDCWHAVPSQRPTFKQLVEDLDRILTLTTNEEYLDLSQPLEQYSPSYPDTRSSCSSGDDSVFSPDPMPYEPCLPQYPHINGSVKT
T4 sequence (Q9UPZ9 whole entry): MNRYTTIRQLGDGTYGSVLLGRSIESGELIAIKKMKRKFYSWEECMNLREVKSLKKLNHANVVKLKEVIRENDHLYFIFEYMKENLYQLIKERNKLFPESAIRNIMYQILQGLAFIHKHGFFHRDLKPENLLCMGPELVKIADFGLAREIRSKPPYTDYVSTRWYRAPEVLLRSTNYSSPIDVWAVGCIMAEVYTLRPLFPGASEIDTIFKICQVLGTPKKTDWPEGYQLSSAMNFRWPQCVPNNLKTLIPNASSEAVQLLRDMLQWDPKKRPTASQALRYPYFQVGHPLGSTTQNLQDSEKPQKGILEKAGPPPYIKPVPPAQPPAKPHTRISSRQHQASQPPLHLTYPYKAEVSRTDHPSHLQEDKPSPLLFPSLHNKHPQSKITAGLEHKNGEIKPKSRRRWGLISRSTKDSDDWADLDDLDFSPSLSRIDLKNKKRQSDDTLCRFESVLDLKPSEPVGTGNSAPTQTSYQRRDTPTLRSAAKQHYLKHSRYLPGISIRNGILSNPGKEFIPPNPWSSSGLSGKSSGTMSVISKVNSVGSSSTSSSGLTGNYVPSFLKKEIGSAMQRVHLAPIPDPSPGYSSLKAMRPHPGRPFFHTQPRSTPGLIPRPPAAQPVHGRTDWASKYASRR
Sequence of SBK1 (Q52WX2 whole entry): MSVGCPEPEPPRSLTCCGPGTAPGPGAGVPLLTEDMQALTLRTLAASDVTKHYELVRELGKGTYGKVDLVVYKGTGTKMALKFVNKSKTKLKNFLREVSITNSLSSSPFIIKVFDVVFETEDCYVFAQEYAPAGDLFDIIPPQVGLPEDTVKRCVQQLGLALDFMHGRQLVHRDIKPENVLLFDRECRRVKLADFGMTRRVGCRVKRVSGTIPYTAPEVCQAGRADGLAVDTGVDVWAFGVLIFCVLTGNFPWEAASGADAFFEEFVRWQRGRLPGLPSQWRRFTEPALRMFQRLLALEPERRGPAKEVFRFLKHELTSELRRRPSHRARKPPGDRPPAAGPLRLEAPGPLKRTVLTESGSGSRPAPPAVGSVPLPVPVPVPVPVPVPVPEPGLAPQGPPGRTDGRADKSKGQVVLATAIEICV
Sequence of DAPK3 (O43293 whole entry): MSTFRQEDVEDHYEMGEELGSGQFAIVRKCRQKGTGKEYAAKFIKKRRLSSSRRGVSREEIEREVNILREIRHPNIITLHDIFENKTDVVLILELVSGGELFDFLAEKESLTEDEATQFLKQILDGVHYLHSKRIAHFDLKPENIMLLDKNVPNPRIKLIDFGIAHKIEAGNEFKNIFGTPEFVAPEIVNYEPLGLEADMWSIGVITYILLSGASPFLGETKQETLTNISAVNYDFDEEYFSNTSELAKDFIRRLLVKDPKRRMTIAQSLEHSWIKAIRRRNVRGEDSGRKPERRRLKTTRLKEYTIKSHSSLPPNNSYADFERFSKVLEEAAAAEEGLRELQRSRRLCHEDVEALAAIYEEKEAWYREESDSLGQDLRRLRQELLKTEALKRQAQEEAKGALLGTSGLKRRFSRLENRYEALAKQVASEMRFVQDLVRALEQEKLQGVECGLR
T1 sequence (Q00536 whole entry): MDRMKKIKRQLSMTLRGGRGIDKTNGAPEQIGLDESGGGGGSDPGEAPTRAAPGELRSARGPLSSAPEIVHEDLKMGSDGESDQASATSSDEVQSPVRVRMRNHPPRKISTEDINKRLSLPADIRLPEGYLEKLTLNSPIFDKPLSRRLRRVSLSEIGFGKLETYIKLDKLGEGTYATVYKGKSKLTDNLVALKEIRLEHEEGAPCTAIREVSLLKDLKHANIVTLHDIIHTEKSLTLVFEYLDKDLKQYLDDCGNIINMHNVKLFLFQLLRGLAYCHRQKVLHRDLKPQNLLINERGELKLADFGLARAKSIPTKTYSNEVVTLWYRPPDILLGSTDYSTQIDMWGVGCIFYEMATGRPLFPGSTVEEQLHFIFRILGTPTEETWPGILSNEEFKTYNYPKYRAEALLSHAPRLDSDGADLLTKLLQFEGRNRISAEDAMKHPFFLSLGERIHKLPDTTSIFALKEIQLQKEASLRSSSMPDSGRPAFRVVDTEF

SMILES: c1ccc2c(c1)Sc1ccccc1N2CCN1CCOCC1 [J54]
- remaining binding (PRKCH): 94%
- remaining binding (GSK3B): 100%
- remaining binding (FGFR2): 100%
- remaining binding (MKNK2): 90%
- remaining binding (PCTK1): 99%
- remaining binding (p38-beta): 100%
- remaining binding (EPHA1): 100%
- remaining binding (RIPK5): 100%
- remaining binding (TAOK2): 100%
- remaining binding (SBK1): 93%
- remaining binding (ICK): 100%
- remaining binding (DAPK3): 96%
- remaining binding (CSNK1E): 100%
- remaining binding (PIKFYVE): 94%
- remaining binding (ERK2): 97%
- remaining binding (LRRK2(G2019S)): 38%
- remaining binding (QSK): 100%
- remaining binding (CDC2L1): 100%
- remaining binding (PIP5K1C): 100%
